Data published in patent US11040987B2 (TenNor Therapeutics Limited, priority 2019, dated 2021).
Converted amounts (≈) assume the structure as drawn.

Legend:
NDM-1 = biological target: T1, NDM-1 (Klebsiella pneumoniae, UniProt C7C422); test: β-lactamase inhibition, spectrophotometric assay of nitrocefin hydrolysis; format: biochemical; conditions: class B β-lactamase, 10 μM ZnSO4; 200 μM nitrocefin, 25° C., 2 hours; read-out: IC50 NDM-1
T1 construct: made in house
Description: (§1) Hydrolytic inactivation of the β-lactam antibiotics by β-lactamases is the most widespread drug resistant mechanism and the most challenge clinically among Gram-negative bacterial pathogens. Based on the amino acid sequences, the β-lactamases are grouped into four classes (Ambler classification), of which A, C and D are serine hydrolases and B encompasses metallo-β-lactamases. The IC50 of selected derivatives disclosed herein (identified with reference to example number) plus six reference β-lactam or β-lactamase inhibitors were determined against 7 representative β-lactamases of various classes in a standard spectrophotometric assay of nitrocefin hydrolysis. The assay is performed in 384-well plate. The seven recombinant β-lactamases AmpC_AB (from A. baumannii), AmpC_PA (from P. aeruginosa), KPC-2, NDM-1, IMP-1, VIM-1 and OXA 24/40) are expressed and purified. The reaction buffer for class A, C and D enzymes is 100 mM Na2HPO4—KH2PO4 (pH 7.1) plus 0.005% Tween-20, and for class B enzymes 10 μM ZnSO4 is added. […] The 50 μL of reaction solution composed of 2 pM of β-lactamase, 200 μM of nitrocefin and series of 3-fold dilutions of test or control compounds are added by Cybio SELMA system into 384-plate and incubated in dark at 25° C. for 2 hours. The OD490 is read in MC SpectraMax Plus384 plate reader.

AmpC_AB = AmpC_AB (Acinetobacter baumannii, UniProt Q6DRA1); test: as above; format: biochemical; conditions: Class C β-lactamase; 200 μM nitrocefin, 25° C., 2 hours; read-out: IC50 AmpC_AB
Description: as §1

VIM-1 = biological target: T2, VIM-1 (Pseudomonas aeruginosa, UniProt A0A0F7KYQ8); test: as above; format: biochemical; conditions: class B β-lactamase, 10 μM ZnSO4; 200 μM nitrocefin, 25° C., 2 hours; read-out: IC50 VIM-1
T2 construct: made in house
Description: as §1

IMP-1 = biological target: T3, IMP-1 (Serratia marcescens, UniProt P52699); test: as above; format: biochemical; conditions: class B β-lactamase, 10 μM ZnSO4; 200 μM nitrocefin, 25° C., 2 hours; read-out: IC50 IMP-1
T3 construct: made in house
T3 sequence (P52699 19-246, looked up, species assumed): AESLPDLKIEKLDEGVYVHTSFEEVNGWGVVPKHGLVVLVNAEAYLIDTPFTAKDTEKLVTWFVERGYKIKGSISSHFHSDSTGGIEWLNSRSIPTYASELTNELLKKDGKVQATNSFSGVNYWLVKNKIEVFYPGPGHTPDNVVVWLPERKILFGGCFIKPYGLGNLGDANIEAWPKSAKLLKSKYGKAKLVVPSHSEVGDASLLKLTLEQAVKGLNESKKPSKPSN
Description: as §1

OXA 24/40 = biological target: T4, OXA 24/40 (Acinetobacter baumannii, UniProt Q8RLA6); test: as above; format: biochemical
T4 construct: made in house
T4 sequence (Q8RLA6 22-275): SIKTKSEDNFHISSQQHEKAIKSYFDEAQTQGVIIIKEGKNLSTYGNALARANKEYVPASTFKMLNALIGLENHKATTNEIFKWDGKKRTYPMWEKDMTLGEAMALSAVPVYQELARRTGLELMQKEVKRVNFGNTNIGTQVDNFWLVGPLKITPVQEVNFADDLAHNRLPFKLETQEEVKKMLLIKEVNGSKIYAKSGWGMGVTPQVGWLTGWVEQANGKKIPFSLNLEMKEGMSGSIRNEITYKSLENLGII
Description: as §1

A.b TNP 41708 = test: MIC against A. baumannii clinical isolates, alone and in combination with antibiotics; format: cell-based; conditions: for MIC: Acinetobacter baumannii, TNP41708, read-out: MIC A.b TNP 41708
Method: (§2) Minimum inhibitory concentration (MIC) is determined by a broth microdilution method according to the recommendation of the Clinical and Laboratory Standards Institute (CLSI) with minor modification. […] Strains of an ESKAPE panel (E. faecium ATCC 700221, S. aureus ATCC 29213, K. pneumoniae ATCC 43816, A. baumannii ATCC 19606, P. aeruginosa ATCC 27853 and Escherichia coli ATCC 25922) were obtained originally from the American Type Culture Collection (ATCC) and used for MIC determinations of compounds. The bacteria inoculum in the test is […].

K. pneumoniae ATCC 43816 = test: MIC determination, broth microdilution, ESKAPE panel; format: cell-based; conditions: Klebsiella pneumoniae, ATCC43816; iron-depleted cation-adjusted Mueller-Hinton broth, 2,2-dipyridyl 160 μM; 37° C., 18-20 hours; read-out: MIC K. pneumoniae ATCC 43816
Method: as §2

P. aeruginosa ATCC 27853 = test: as above; format: cell-based; conditions: Pseudomonas aeruginosa, ATCC27853; iron-depleted cation-adjusted Mueller-Hinton broth, 2,2-dipyridyl 160 μM; 37° C., 18-20 hours; read-out: MIC P. aeruginosa ATCC 27853
Method: as §2

S. aureus ATCC 29213 = test: as above; format: cell-based; conditions: Staphylococcus aureus, ATCC29213; iron-depleted cation-adjusted Mueller-Hinton broth, 2,2-dipyridyl 160 μM; 37° C., 18-20 hours; read-out: MIC S. aureus ATCC 29213
Method: as §2

E. faecium ATCC 700221 = test: as above; format: cell-based; conditions: Enterococcus faecium, ATCC700221; iron-depleted cation-adjusted Mueller-Hinton broth, 2,2-dipyridyl 160 μM; 37° C., 18-20 hours; read-out: MIC E. faecium ATCC 700221
Method: as §2

[1] = system: Escherichia coli ATCC 25922; test: as above; format: cell-based; conditions: ATCC25922, iron-depleted cation-adjusted Mueller-Hinton broth, 2,2-dipyridyl 160 μM, 37° C., 18-20 hours, read-out: MIC E. coli ATCC 25922
Method: as §2

A. baumannii ATCC 19606 = test: as above; format: cell-based; conditions: Acinetobacter baumannii, ATCC19606; iron-depleted cation-adjusted Mueller-Hinton broth, 2,2-dipyridyl 160 μM; 37° C., 18-20 hours; read-out: MIC A. baumannii ATCC 19606
Method: as §2

A.b TNP 41709 = test: MIC against A. baumannii clinical isolates, alone and in combination with antibiotics; format: cell-based; conditions: for MIC: Acinetobacter baumannii, TNP41709, Compounds alone, read-out: MIC A.b TNP 41709
A.b TNP 41704 = test: as above; format: cell-based; conditions: for MIC: Acinetobacter baumannii, TNP41704, Compounds alone, read-out: MIC A.b TNP 41704

T1 sequence (C7C422 29-270, looked up, species assumed): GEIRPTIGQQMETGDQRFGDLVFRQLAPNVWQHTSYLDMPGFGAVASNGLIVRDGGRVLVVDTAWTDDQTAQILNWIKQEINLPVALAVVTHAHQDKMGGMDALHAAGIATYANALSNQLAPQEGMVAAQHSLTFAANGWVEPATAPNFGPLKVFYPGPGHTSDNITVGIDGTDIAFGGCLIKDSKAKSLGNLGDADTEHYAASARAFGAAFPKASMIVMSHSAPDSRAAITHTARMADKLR

Compound | MIC (A.b TNP 41708) | MIC A.b TNP 41708 (A.b TNP 41708; Compounds + meropenem (1:1)) | MIC A.b TNP 41708 (A.b TNP 41708; Compounds + sulbactam (1:1)) | MIC (K. pneumoniae ATCC 43816) | MIC (P. aeruginosa ATCC 27853) | MIC (S. aureus ATCC 29213) | MIC (E. faecium ATCC 700221) | MIC [1] | MIC (A. baumannii ATCC 19606) | MIC (A.b TNP 41709) | MIC A.b TNP 41709 (A.b TNP 41709; Compounds + meropenem (1:1)) | MIC A.b TNP 41709 (A.b TNP 41709; Compounds + sulbactam (1:1)) | MIC (A.b TNP 41704) | MIC A.b TNP 41704 (A.b TNP 41704; Compounds + meropenem (1:1)) | MIC A.b TNP 41704 (A.b TNP 41704; Compounds + sulbactam (1:1)) | further results
O=C(NC1CCNCC1)[C@@H]1CC[C@@H]2CN1C(=O)N2OS(=O)(=O)O [Relebactam, reference compound] |  |  |  |  |  |  |  |  |  |  |  |  |  |  |  | IC50 (NDM-1): > 200 µM; IC50 (AmpC_AB): 0.892 µM; IC50 (VIM-1): > 200 µM; IC50 (IMP-1): > 200 µM; IC50 (OXA 24/40): > 200 µM
NC(=O)[C@@H]1CC[C@@H]2CN1C(=O)N2OS(=O)(=O)O [Avibactam, reference compound] |  |  |  |  |  |  |  |  |  |  |  |  |  |  |  | IC50 (NDM-1): > 200 µM; IC50 (AmpC_AB): 2.61 µM; IC50 (VIM-1): > 200 µM; IC50 (IMP-1): > 200 µM
C[C@]1(/C=N/NC(=O)c2ccc(O)cc2)[C@H](C(=O)O)N2C(=O)C[C@H]2S1(=O)=O [Example 29, (2S,3R,5R)-3-((E)-(2-(4-hydroxybenzoyl)hydrazono)methyl)-3-methyl-7-oxo-4-thia-1-azabicyclo[3.2.0]heptane-2-carboxylic acid 4,4-dioxide] | > 128 µg/mL | 32 µg/mL | 32 µg/mL | > 128 µg/mL | > 128 µg/mL | > 128 µg/mL | > 128 µg/mL | > 128 µg/mL | > 128 µg/mL | > 128 µg/mL | 32 µg/mL | 32 µg/mL | > 128 µg/mL | 32 µg/mL | 8 µg/mL | 
COc1ccc(C(=O)N/N=C/[C@@]2(C)[C@H](C(=O)O)N3C(=O)C[C@H]3S2(=O)=O)cc1 [Example 35, (2S,3R,5R)-3-((E)-(2-(4-methoxybenzoyl)hydrazono)methyl)-3-methyl-7-oxo-4-thia-1-azabicyclo[3.2.0]heptane-2-carboxylic acid 4,4-dioxide] | > 128 µg/mL | 1 µg/mL | 16 µg/mL | > 128 µg/mL | > 128 µg/mL | 128 µg/mL (≈ 324 µM) | > 128 µg/mL | > 128 µg/mL | > 128 µg/mL | > 128 µg/mL | 32 µg/mL | 4 µg/mL | > 128 µg/mL | 32 µg/mL | 4 µg/mL | 
CN(NC(=O)c1ccc(O)c(O)c1Cl)C(=O)OC[C@@]1(C)[C@H](C(=O)O)N2C(=O)C[C@H]2S1(=O)=O [Example 80, (2S,3R,5R)-3-(((2-(2-chloro-3,4-dihydroxybenzoyl)-1-methylhydrazinecarbonyl)oxy)methyl)-3-methyl-7-oxo-4-thia-1-azabicyclo[3.2.0]heptane-2-carboxylic acid 4,4-dioxide] | > 128 µg/mL | 64 µg/mL | 32 µg/mL | 16 µg/mL (≈ 32.5 µM) | > 128 µg/mL | > 128 µg/mL | > 128 µg/mL | 64 µg/mL (≈ 130 µM) | 0.25 µg/mL (≈ 0.508 µM) | > 128 µg/mL | 32 µg/mL | 8 µg/mL | > 128 µg/mL | 16 µg/mL | 4 µg/mL | 
C[C@]1(c2cc(C(=O)c3ccc(O)c(O)c3)on2)[C@H](C(=O)O)N2C(=O)C[C@H]2S1(=O)=O [Example 112, (2S,3R,5R)-3-(5-(3,4-dihydroxybenzoyl)isoxazol-3-yl)-3-methyl-7-oxo-4-thia-1-azabicyclo[3.2.0]heptane-2-carboxylic acid 4,4-dioxide] | > 64 µg/mL | 16 µg/mL | 8 µg/mL | > 64 µg/mL | > 64 µg/mL | > 64 µg/mL | > 64 µg/mL | > 64 µg/mL | 32 µg/mL (≈ 75.8 µM) | > 64 µg/mL | 8 µg/mL | 2 µg/mL | > 64 µg/mL | 16 µg/mL | 2 µg/mL | 
C[C@]1(/C=N/NC(=O)C2CCN(C(=O)c3ccc(O)c(O)c3Cl)CC2)[C@H](C(=O)O)N2C(=O)C[C@H]2S1(=O)=O [Example 42, (2S,3R,5R)-3-((E)-(2-(1-(2-chloro-3,4-dihydroxybenzoyl)piperidine-4-carbonyl)hydrazono)methyl)-3-methyl-7-oxo-4-thia-1-azabicyclo[3.2.0]heptane-2-carboxylic acid 4,4-dioxide] | > 128 µg/mL | 2 µg/mL | 8 µg/mL | > 128 µg/mL | > 128 µg/mL | 128 µg/mL (≈ 236 µM) | > 128 µg/mL | > 128 µg/mL | 1 µg/mL (≈ 1.84 µM) | > 128 µg/mL | 2 µg/mL | 4 µg/mL | > 128 µg/mL | 2 µg/mL | 8 µg/mL | 
C[C@]1(/C=N/NC(=O)CCNC(=O)c2ccc(O)c(O)c2Cl)[C@H](C(=O)O)N2C(=O)C[C@H]2S1(=O)=O [Example 60, (2S,3R,5R)-3-((E)-(2-(3-(2-chloro-3,4-dihydroxybenzamido)propanoyl)hydrazono)methyl)-3-methyl-7-oxo-4-thia-1-azabicyclo[3.2.0]heptane-2-carboxylic acid 4,4-dioxide] | > 128 µg/mL | 2 µg/mL | 8 µg/mL | 16 µg/mL (≈ 31.8 µM) | > 128 µg/mL | > 128 µg/mL | > 128 µg/mL | > 128 µg/mL | 2 µg/mL (≈ 3.98 µM) | > 128 µg/mL | 2 µg/mL | 8 µg/mL | 64 µg/mL | 2 µg/mL | 1 µg/mL | MIC A.b TNP 41708 (A.b TNP 41708; Compounds + Imipenem (1:1)): 2 µg/mL; MIC A.b TNP 41709 (A.b TNP 41709; Compounds + Imipenem (1:1)): 1 µg/mL; MIC A.b TNP 41704 (A.b TNP 41704; Compounds + Imipenem (1:1)): 2 µg/mL
C[C@]1(/C=N/OCCNC(=O)c2ccc(O)c(O)c2Cl)[C@H](C(=O)O)N2C(=O)C[C@H]2S1(=O)=O [Example 118, (2S,3R,5R)-3-((E)-((2-(2-chloro-3,4-dihydroxybenzamido)ethoxy)imino)methyl)-3-methyl-7-oxo-4-thia-1-azabicyclo[3.2.0]heptane-2-carboxylic acid 4,4-dioxide] | > 128 µg/mL | >128 µg/mL | >128 µg/mL | > 128 µg/mL | > 128 µg/mL | > 128 µg/mL | > 128 µg/mL | > 128 µg/mL | > 128 µg/mL | > 128 µg/mL | >128 µg/mL | >128 µg/mL | > 128 µg/mL | 128 µg/mL | 16 µg/mL | 
